Measured values: PubChem BioAssay AID2060893 (Molecular Pharmacology Branch, DTP, NCI, 2025)

Test system: K86415-001-R-J1-PDC complex spheroids, viability
Test: Anticancer human tumor K86415-001-R-J1-PDC patient-derived lung adenocarcinoma cell line growth inhibition [RAS]
Conditions: for IC50: curve of first compound; for viability, T/C: stronger effect = lower value; active = viability on the fitted dose curve at most 10% of control; inactive = the rest
Text: RAS pathway inhibitors in Combinations in Complex Spheroids
A high-throughput screen of multi-cell type tumor spheroids was designed to identify active combinations of RAS pathway inhibitors and targeted small molecules. Complex spheroids include a stromal component modeled by human endothelial cells (HUVEC) and fibroblasts modeled by human mesenchymal stem cells (MSCs). The concentration ranges selected for each drug and investigational agent were based upon clinically achievable concentrations if the clinical Cmax of the agent was known.
Compounds. The drugs and investigational agents: abemaciclib (NSC768073), cobimetinib (NSC768068), divarasib (GDC6063, NSC841802), docetaxel (NSC628503), GDC-1971 (RLY-1971, NSC841576), gemcitabine (NSC613327), inavolisib (NSC800729), ipatasertib (NSC767898), KB-0742 (NSC834161), MRTX-1133 (NSC836407), osimertinib (NSC779217), RMC-4630 (NSC839698), RMC-6236 (NSC851965), RMC-6291 (NSC852671), Ro-3306 (NSC812927), sapanisertib (NSC764658), SN-38 (NSC673596), staurosporine (NSC755774), SY5609 (NSC837396), and tovorafenib (DAY101, NSC766906), were obtained from the National Cancer Institute (NCI) Developmental Therapeutics Program Chemical Repository. The FDA-approved anticancer drug set is available from the NCI Developmental Therapeutics Program. […] The stock solutions were prepared in dimethyl sulfoxide (DMSO, Sigma-Aldrich, St. Louis, MO, cat. D2650) at 800-fold the tested concentration and stored at -70 degrees C prior to their use. All drugs and investigational agents were tested over a range starting from a high concentration at or near the clinical Cmax and decreasing in half-log increments. If the clinical Cmax for an agent had not been determined, the highest concentration tested was 10 microM.
Cell Culture. All cells were maintained in an incubator at 37 degrees C and 5% CO2 with 95% humidity. The PDC lines were cultured according to standard operating procedures established by the NCI PDMR. All PDCs were thawed and cultured in Matrigel-coated flasks prepared with a working solution of 1X Ham's F-12 nutrient mix, without supplementation (Invitrogen, Waltham, MA, cat. 11765054), 100 U/mL penicillin-streptomycin (Invitrogen, cat. 15140122), and 2.5% Matrigel (Corning Inc., Corning, NY, cat. 354248) for the first three passages. The 362531-283-R-J2-PDC and 782815-120-R-J1-PDC lines were cultured in 6C/Colon 1B media, which includes advanced DMEM/F-12 (Thermo Fisher Scientific, cat. 12634028), 10 mM HEPES (Thermo Fisher Scientific, cat. 15630080), 1X GlutaMAX supplement (Thermo Fisher Scientific, cat. 35050061), 0.1 mg/mL primocin (InvivoGen, San Diego, CA, cat. ant-pm-2), 10% defined fetal bovine serum, heat inactivated (HyClone Laboratories Inc., Logan, UT, cat. SH30070.03HI), 50% L-WRN conditioned media (ATCC, cat. CRL-3276), 1.25 mM N-Acetyl-L-cysteine (Sigma-Aldrich, cat. A9165), 10 mM nicotinamide (Sigma-Aldrich, cat. N0636), 1X B-27 supplement (Thermo Fisher Scientific, cat. 17504044), 1X N-2 supplement (Thermo Fisher Scientific, cat. 17502048), 50 ng/mL human EGF (Thermo Fisher Scientific, cat. PHG0311), and 10 microM Y-27632 dihydrochloride (Tocris Bioscience, cat. 1254). The K12877-001-R-J1-PDC line was cultured in 6I media, which includes all 6C/Colon 1B media plus 10 ng/mL human FGF-10 (PeproTech, cat. 100-26), 1 ng/mL human FGF-2 (PeproTech, cat. 100-18B), 1 µM prostaglandin E2 (Tocris Bioscience, cat. 2296), […] hydrocortisone (Sigma-Aldrich, cat. H4001), and […] bovine insulin (Sigma-Aldrich, cat. I6634). The K86415-001-R-J1-PDC line was cultured in 6D media, which includes all 6C/Colon 1B media components minus the L-WRN conditioned media. The 485176-168-R4-J1-PDC was cultured in PANC media, which includes all 6C/Colon 1B media plus 100 ng/mL human FGF-10 (PeproTech, cat. 100-26), 500 nM SB-431542 (Selleckchem, cat. S1067), and 10 nM gastrin (Tocris Bioscience, cat. 3006). […]
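Also: spheroids exposed to agents for seven days before readout.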

CC1(C)CCC(Nc2ncc(C(F)(F)F)c(-c3c[nH]c4c(P(C)(C)=O)c(C#N)ccc34)n2)CN1 (configuration not stated) + C=CC(=O)N1CCN(c2nc(OCC3CCCN3C)nc3c(F)c(-c4nc(N)cc(C)c4C(F)(F)F)c(Cl)cc23)C(C)C1
inactive: viability, T/C (second compound 0.00316 µM, first compound 0.000949 µM) 18.3% | viability, T/C (second compound 0.00316 µM, first compound 0.003 µM) 22.2% | viability, T/C (second compound 0.00316 µM, first compound 0.00949 µM) 18.7% | viability, T/C (second compound 0.00316 µM, first compound 0.03 µM) 20.3% | viability, T/C (second compound 0.00316 µM, first compound 0.0949 µM) 22.7% | viability, T/C (second compound 0.00316 µM, first compound 0.3 µM) 22.8% | viability, T/C (second compound 0.01 µM, first compound 0.000949 µM) 15.2% | viability, T/C (second compound 0.01 µM, first compound 0.003 µM) 12.7% | viability, T/C (second compound 0.01 µM, first compound 0.00949 µM) 16.9% | viability, T/C (second compound 0.01 µM, first compound 0.03 µM) 13.3% | viability, T/C (second compound 0.01 µM, first compound 0.0949 µM) 15.5% | viability, T/C (second compound 0.01 µM, first compound 0.3 µM) 20.2% | viability, T/C (second compound 0.0316 µM, first compound 0.000949 µM) 12.8% | viability, T/C (second compound 0.0316 µM, first compound 0.003 µM) 14% | viability, T/C (second compound 0.0316 µM, first compound 0.00949 µM) 12.7% | viability, T/C (second compound 0.0316 µM, first compound 0.03 µM) 14.5% | viability, T/C (second compound 0.0316 µM, first compound 0.0949 µM) 15.6% | viability, T/C (second compound 0.0316 µM, first compound 0.3 µM) 16.5% | viability, T/C (second compound 0.1 µM, first compound 0.000949 µM) 11.2% | viability, T/C (second compound 0.1 µM, first compound 0.003 µM) 12.5% | viability, T/C (second compound 0.1 µM, first compound 0.00949 µM) 12.7% | viability, T/C (second compound 0.1 µM, first compound 0.03 µM) 13.1% | viability, T/C (second compound 0.1 µM, first compound 0.0949 µM) 13.9% | viability, T/C (second compound 0.1 µM, first compound 0.3 µM) 14.9% | viability, T/C (second compound 0.316 µM, first compound 0.000949 µM) 9.63% | viability, T/C (second compound 0.316 µM, first compound 0.003 µM) 13.1% | viability, T/C (second compound 0.316 µM, first compound 0.00949 µM) 12.1% | viability, T/C (second compound 0.316 µM, first compound 0.03 µM) 12.8% | viability, T/C (second compound 0.316 µM, first compound 0.0949 µM) 13.8% | viability, T/C (second compound 0.316 µM, first compound 0.3 µM) 13.4% | viability, T/C (second compound 1 µM, first compound 0.000949 µM) 10.9% | viability, T/C (second compound 1 µM, first compound 0.003 µM) 11.1% | viability, T/C (second compound 1 µM, first compound 0.00949 µM) 13.6% | viability, T/C (second compound 1 µM, first compound 0.03 µM) 13.8% | viability, T/C (second compound 1 µM, first compound 0.0949 µM) 15.9% | viability, T/C (second compound 1 µM, first compound 0.3 µM) 14.9%
< 0.949 nM: IC50 (second compound 0.00316 µM) | IC50 (second compound 0.01 µM) | IC50 (second compound 0.0316 µM) | IC50 (second compound 0.1 µM) | IC50 (second compound 0.316 µM) | IC50 (second compound 1 µM)
